{"source": "patent US7795287B2", "about": "“Therapeutic substituted hydantoins and related compounds” (Allergan, Inc., priority 2006, dated 2010)", "key": {"[1]": {"biological_target": "T1, EP2 (Homo sapiens, UniProt P43116)", "T1 sequence (P43116 whole entry)": "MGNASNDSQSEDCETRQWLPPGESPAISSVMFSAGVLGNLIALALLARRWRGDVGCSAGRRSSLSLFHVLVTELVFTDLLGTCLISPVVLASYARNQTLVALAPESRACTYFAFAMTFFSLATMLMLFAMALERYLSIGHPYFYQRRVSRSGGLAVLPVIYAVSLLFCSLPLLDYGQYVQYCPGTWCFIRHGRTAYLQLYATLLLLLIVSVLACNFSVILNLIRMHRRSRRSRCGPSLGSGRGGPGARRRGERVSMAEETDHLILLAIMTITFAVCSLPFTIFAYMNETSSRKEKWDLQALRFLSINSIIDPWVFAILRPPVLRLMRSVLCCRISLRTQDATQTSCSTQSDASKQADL", "assay": "EP2 cAMP", "format": "cell-based", "from_the_text": "(§1) U.S. patent application Ser. No. 11/553,143, filed on Oct. 26, 2006, incorporated by reference herein, describes the methods used to obtain the in vitro data in the table below."}, "[2]": {"biological_target": "T1, EP2", "assay": "EP2 flipr", "format": "cell-based", "from_the_text": "as §1"}, "[3]": {"biological_target": "T1, EP2", "assay": "EP2 binding (Ki)", "from_the_text": "as §1"}, "[4]": {"biological_target": "EP4 (Homo sapiens, UniProt P35408)", "sequence (P35408 whole entry)": "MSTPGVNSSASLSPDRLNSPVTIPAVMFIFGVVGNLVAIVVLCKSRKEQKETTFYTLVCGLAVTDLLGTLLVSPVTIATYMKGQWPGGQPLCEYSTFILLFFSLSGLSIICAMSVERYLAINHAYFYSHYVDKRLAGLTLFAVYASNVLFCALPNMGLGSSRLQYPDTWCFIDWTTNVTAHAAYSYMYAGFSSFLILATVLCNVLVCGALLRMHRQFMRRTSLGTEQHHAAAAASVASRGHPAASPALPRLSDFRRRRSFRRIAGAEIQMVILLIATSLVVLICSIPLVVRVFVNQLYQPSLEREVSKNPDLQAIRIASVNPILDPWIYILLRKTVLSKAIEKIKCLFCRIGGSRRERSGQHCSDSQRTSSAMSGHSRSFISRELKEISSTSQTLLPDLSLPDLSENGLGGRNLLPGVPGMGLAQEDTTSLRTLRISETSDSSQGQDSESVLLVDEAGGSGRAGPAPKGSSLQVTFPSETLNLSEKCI", "assay": "EP4 binding (KI)", "from_the_text": "as §1"}, "[5]": {"biological_target": "T2, hEP3A (Homo sapiens, UniProt P43115)", "T2 sequence (P43115 1-390)": "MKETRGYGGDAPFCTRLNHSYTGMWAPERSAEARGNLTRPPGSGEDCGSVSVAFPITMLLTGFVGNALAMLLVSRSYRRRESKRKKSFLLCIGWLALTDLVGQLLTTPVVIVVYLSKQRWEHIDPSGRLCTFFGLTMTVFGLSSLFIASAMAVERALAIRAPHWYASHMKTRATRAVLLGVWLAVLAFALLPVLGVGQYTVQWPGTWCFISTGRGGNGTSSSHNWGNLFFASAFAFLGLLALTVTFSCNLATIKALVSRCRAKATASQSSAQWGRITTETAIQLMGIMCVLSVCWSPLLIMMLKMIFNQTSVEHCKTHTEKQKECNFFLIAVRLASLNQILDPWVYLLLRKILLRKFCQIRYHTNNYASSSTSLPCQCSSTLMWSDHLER", "assay": "Other Receptors, hEP3A", "format": "cell-based", "from_the_text": "as §1"}, "[6]": {"biological_target": "T3, hDP (Homo sapiens, UniProt Q13258)", "T3 sequence (Q13258 1-359)": "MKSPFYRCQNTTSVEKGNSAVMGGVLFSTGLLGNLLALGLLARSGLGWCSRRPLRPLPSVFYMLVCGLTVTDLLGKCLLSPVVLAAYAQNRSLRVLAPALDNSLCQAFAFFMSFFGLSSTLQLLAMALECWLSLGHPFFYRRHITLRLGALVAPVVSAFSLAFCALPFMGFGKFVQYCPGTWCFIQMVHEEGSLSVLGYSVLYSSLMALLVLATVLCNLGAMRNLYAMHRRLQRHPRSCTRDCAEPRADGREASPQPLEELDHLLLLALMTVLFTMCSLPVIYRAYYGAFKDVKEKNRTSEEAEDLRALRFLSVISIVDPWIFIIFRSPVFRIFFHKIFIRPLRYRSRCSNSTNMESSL", "assay": "Other Receptors, hDP", "format": "cell-based", "from_the_text": "as §1"}, "[7]": {"system": "normotensive dogs", "assay": "Ocular surface hyperemia in normotensive dogs", "format": "in vivo", "conditions": "0.003%, once daily for 5 days, maximum at 26 h", "procedure": "U.S. Pat. No. 7,091,231 describes the methods used to carry out the tests reported below.\nIsopropyl 5-(3-(3-(4-(1-hydroxyhexyl)phenyl)-2,5-dioxoimidazolidin-4-yl)propyl)thiophene-2-carboxylate (31) was tested in normotensive dogs at 0.003%, dosing once daily for 5 days. The maximum intraocular pressure (IOP) decrease from baseline was 7.7 mmHg (45%) at 102 h; the maximum ocular surface hyperemia (OSH) score was 2.5 at 26 h."}}, "data": [{"smiles": "CCCCCC(=O)c1ccc(N2C(=O)NC(=O)C2CCCc2ccc(C(=O)O)s2)cc1", "note": "(centres unmarked)", "values": [{"measurement": "EC50", "setting": "[1]", "value": 0.2, "unit": "nM"}]}, {"smiles": "CCCCCC(O)c1ccc(N2C(=O)NC(=O)C2CCCc2ccc(C(=O)O)s2)cc1", "note": "(centres unmarked)", "values": [{"measurement": "EC50", "setting": "[2]", "value": 3.5, "unit": "nM"}, {"measurement": "EC50", "setting": "[1]", "value": 0.1, "unit": "nM"}, {"measurement": "Ki", "setting": "[3]", "value": 5, "unit": "nM"}, {"measurement": "Ki", "setting": "[4]", "value": "> 10000", "unit": "nM"}, {"measurement": "EC50", "setting": "[5]", "value": 10, "unit": "nM"}, {"measurement": "EC50", "setting": "[6]", "value": 17400, "unit": "nM"}]}, {"smiles": "CCCCCC(O)c1ccc(N2C(=O)NC(=O)C2CCCc2ccc(C(=O)OC(C)C)s2)cc1", "note": "(centres unmarked) [Compound 31, Isopropyl 5-(3-(3-(4-(1-hydroxyhexyl)phenyl)-2,5-dioxoimidazolidin-4-yl)propyl)thiophene-2-carboxylate]", "values": [{"measurement": "maximum ocular surface hyperemia (OSH) score", "setting": "[7]", "value": 2.5}]}]}
